Reference: patent EP3858818A1, “TRIKETONE COMPOUND, PREPARATION METHOD THEREFOR AND USE THEREOF, AND HERBICIDE” (Shandong Cynda Chemical Co., LTD., priority 2018, dated 2020)

Experiments:
Format in all cases: in vivo
[1] = tested on: Aegilops squarrosa, Avenafatua, Bromus japonicus, Alopecurus aequalis, and Alopecurus japonicus; test: Re-screening with reduced concentration, summary in text for gramineous weeds of wheat fields; conditions: at three application concentrations (120, 60, 30 g.a.i/ha); result in words
Amaranthus tricolor = test: Preliminary screening test (pot-culture method), post-emergence stem and leaf spray; conditions: 150 g.a.i/ha; stems and leaves sprayed at 4-5 leaves stage; investigated after 30 days; visual rating
Description: (§1) Preliminary screening test (pot-culture method): the targets of the test are Echinochloa crusgalli, Digitaria sanguinalis, Setaria viridis, Amaranthus tricolor, Chenopodium album, Abutilontheophrasti. Spraying the stems and leaves after seedlings: taking a paper cup with an inner diameter of 7 cm and fill it with composite soil (vegetable garden soil: seedling substrate, 1: 2, v/v) to 3/4 of the cup. Sowing weeds directly, cover it with 0.2 cm soil and wait until it grows to 4-5 leaves stage for later use. The compounds of the invention and the aforementioned comparative compound D1 are applied in an automatic spray tower at a dose of 150 g.a.i/ha (g/ha). After the liquid on the crop leaves is dried in the air, the crops are transferred to the greenhouse for cultivation (humidity 70%), and the results were investigated after 30 days.
(§2) The growth inhibition rate evaluation method is a visual method. The growth inhibition rate is rated specifically according to the conditions shown in table 2, and the test results are shown in Table 3.

Chenopodium album = test: as above; conditions: 150 g.a.i/ha; stems and leaves sprayed at 4-5 leaves stage; investigated after 30 days; visual rating
Description: as §1, §2

Setaria viridis [2] = test: as above; conditions: 150 g.a.i/ha; stems and leaves sprayed at 4-5 leaves stage; investigated after 30 days; visual rating
Description: as §1, §2

Echinochloa crusgalli [3] = test: as above; conditions: 150 g.a.i/ha; stems and leaves sprayed at 4-5 leaves stage; investigated after 30 days; visual rating
Description: as §1, §2

Digitaria sanguinalis [4] = test: as above; conditions: 150 g.a.i/ha; stems and leaves sprayed at 4-5 leaves stage; investigated after 30 days; visual rating
Description: as §1, §2

Abutilon theophrasti = test: as above; conditions: 150 g.a.i/ha; stems and leaves sprayed at 4-5 leaves stage; investigated after 30 days; visual rating
Description: as §1, §2

Aegilops squarrosa = test: Re-screen assay at low dose (pot-culture method); conditions: post-emergence spray, 30 days
Description: as §1, §2
(§3) The same method as in test example 1 is used to conduct re-screen assays at the low dose for representative compounds, and the results are shown in Table 4.

Alopecurus japonicus = test: Re-screen assay at low dose (pot-culture method); conditions: post-emergence spray, 30 days
Description: as §1, §2, §3

Bromus japonicus = test: Re-screen assay at low dose (pot-culture method); conditions: post-emergence spray, 30 days
Description: as §1, §2, §3

Alopecurus aequalis = test: Re-screen assay at low dose (pot-culture method); conditions: post-emergence spray, 30 days
Description: as §1, §2, §3

Avena fatua = test: Re-screen assay at low dose (pot-culture method); conditions: post-emergence spray, 30 days
Description: as §1, §2, §3

Setaria viridis [5] = test: Re-screen assay at low dose (pot-culture method); conditions: post-emergence spray, 30 days
Description: as §1, §2, §3

Echinochloa crusgalli [6] = test: Re-screen assay at low dose (pot-culture method); conditions: post-emergence spray, 30 days
Description: as §1, §2, §3

Digitaria sanguinalis [7] = test: Re-screen assay at low dose (pot-culture method); conditions: post-emergence spray, 30 days
Description: as §1, §2, §3

## Cc1cccc(C)c1-n1c(=O)c2cc(C(=O)C3=C(O)CCCC3=O)ccc2n(C)c1=O [Compound D1]
[1]
  herbicidal activity on gramineous weeds in wheat fields: hardly shows herbicidal activity
Amaranthus tricolor
  Inhibition Level Amaranthus tricolor: 4 (weeds or crops die.)
Chenopodium album
  Inhibition Level Chenopodium album: 5 (weeds or crops die completely.)
Setaria viridis [2]
  Inhibition Level Setaria viridis: 4 (weeds or crops die.)
Echinochloa crusgalli [3]
  Inhibition Level Echinochloa crusgalli: 4 (weeds or crops die.)
Digitaria sanguinalis [4]
  Inhibition Level Digitaria sanguinalis: 4 (weeds or crops die.)
Abutilon theophrasti
  Inhibition Level Abutilon theophrasti: 4 (weeds or crops die.)
Aegilops squarrosa; 30 g.a.i/ha
  Inhibition Level Aegilops squarrosa: 0 (has no influence on the growth of weeds or crops and has no drug effect symptom.)
Aegilops squarrosa; 60 g.a.i/ha
  Inhibition Level Aegilops squarrosa: 1 (slightly affects the growth of weeds or crops, and has no obvious drug effect symptom.)
Aegilops squarrosa; 120 g.a.i/ha
  Inhibition Level Aegilops squarrosa: 2 (has certain effect on weed or crop growth, and has obvious drug effect.)
Alopecurus japonicus; 30 g.a.i/ha
  Inhibition Level Alopecurus japonicus: 0 (has no influence on the growth of weeds or crops and has no drug effect symptom.)
Alopecurus japonicus; 60 g.a.i/ha
  Inhibition Level Alopecurus japonicus: 0 (has no influence on the growth of weeds or crops and has no drug effect symptom.)
Alopecurus japonicus; 120 g.a.i/ha
  Inhibition Level Alopecurus japonicus: 0 (has no influence on the growth of weeds or crops and has no drug effect symptom.)
Bromus japonicus; 30 g.a.i/ha
  Inhibition Level Bromus japonicus: 0 (has no influence on the growth of weeds or crops and has no drug effect symptom.)
Bromus japonicus; 60 g.a.i/ha
  Inhibition Level Bromus japonicus: 0 (has no influence on the growth of weeds or crops and has no drug effect symptom.)
Bromus japonicus; 120 g.a.i/ha
  Inhibition Level Bromus japonicus: 0 (has no influence on the growth of weeds or crops and has no drug effect symptom.)
Alopecurus aequalis; 30 g.a.i/ha
  Inhibition Level Alopecurus aequalis: 0 (has no influence on the growth of weeds or crops and has no drug effect symptom.)
Alopecurus aequalis; 60 g.a.i/ha
  Inhibition Level Alopecurus aequalis: 0 (has no influence on the growth of weeds or crops and has no drug effect symptom.)
Alopecurus aequalis; 120 g.a.i/ha
  Inhibition Level Alopecurus aequalis: 1 (slightly affects the growth of weeds or crops, and has no obvious drug effect symptom.)
Avena fatua; 30 g.a.i/ha
  Inhibition Level Avena fatua: 0 (has no influence on the growth of weeds or crops and has no drug effect symptom.)
Avena fatua; 60 g.a.i/ha
  Inhibition Level Avena fatua: 0 (has no influence on the growth of weeds or crops and has no drug effect symptom.)
Avena fatua; 120 g.a.i/ha
  Inhibition Level Avena fatua: 2 (has certain effect on weed or crop growth, and has obvious drug effect.)
Setaria viridis [5]; 30 g.a.i/ha
  Inhibition Level Setaria viridis: 3 (weeds or crops are subject to severe growth inhibition.)
Setaria viridis [5]; 60 g.a.i/ha
  Inhibition Level Setaria viridis: 3 (weeds or crops are subject to severe growth inhibition.)
Setaria viridis [5]; 120 g.a.i/ha
  Inhibition Level Setaria viridis: 4 (weeds or crops die.)
Echinochloa crusgalli [6]; 30 g.a.i/ha
  Inhibition Level Echinochloa crusgalli: 3 (weeds or crops are subject to severe growth inhibition.)
Echinochloa crusgalli [6]; 60 g.a.i/ha
  Inhibition Level Echinochloa crusgalli: 3 (weeds or crops are subject to severe growth inhibition.)
Echinochloa crusgalli [6]; 120 g.a.i/ha
  Inhibition Level Echinochloa crusgalli: 4 (weeds or crops die.)
Digitaria sanguinalis [7]; 30 g.a.i/ha
  Inhibition Level Digitaria sanguinalis: 3 (weeds or crops are subject to severe growth inhibition.)
Digitaria sanguinalis [7]; 60 g.a.i/ha
  Inhibition Level Digitaria sanguinalis: 3 (weeds or crops are subject to severe growth inhibition.)
Digitaria sanguinalis [7]; 120 g.a.i/ha
  Inhibition Level Digitaria sanguinalis: 4 (weeds or crops die.)
